Experimental data as given in publication PMC10163259, “KK-LC-1 as a therapeutic target to eliminate ALDH^+ stem cells in triple negative breast cancer” (Nature Communications, 2023).

Target: T1, KK-LC-1 (Homo sapiens, UniProt Q5H943)
T1 construct: gene CT83; purified KK-LC-1 protein, biotinylated, immobilised on Super Streptavidin sensors
T1 sequence (Q5H943 1-113): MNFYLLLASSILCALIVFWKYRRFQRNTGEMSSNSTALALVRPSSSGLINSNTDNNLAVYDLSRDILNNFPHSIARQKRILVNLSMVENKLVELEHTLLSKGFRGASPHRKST
Assay: biolayer interferometry (Octet K2)
Assay type: binding
Details: 30 °C; PBS with 0.1% BSA, 0.01% Tween-20, 1% DMSO; biotinylated KK-LC-1 immobilised; from kon/koff

## Cc1ccc(CNC(=O)c2nnc(CN(C)C3CCc4ccccc43)s2)cc1 (stereo not shown) [Z8, Z839878730]
  Kd: 4.3 µM
